Experimental data from the supplement of paper PMC11061612.

What was measured:
Test in all cases: combination Emax (second highest fraction inhibited in the dose matrix, 72 h); higher = more inhibition; extreme values may be limits of the assay
[1] = system: D-283MED (Other Solid Carcinomas)
How it was run: (§1)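 Cell lines in DMEM/F12 or RPMI with 10% FBS were plated in 1536-well plates, held 24 hours at 37°C, 5% CO2, then given two-drug dose matrices for 72 hours (DMSO typically 0.2%). Viability was read by CellTiter-Glo 2.0 luminescence and scaled as inhibition from 0 (vehicle wells) to 1 (blank wells). Combination Emax is the second-highest inhibition in the matrix; Bliss excess is observed combination effect minus expected EA + EB − EA·EB, EA and EB being single-agent effects.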

D-392MG (Glioblastoma) = system: D-392MG (Glioblastoma)
How it was run: as §1

[2] = system: DOK (Oral Cavity Carcinoma)
How it was run: as §1

[3] = system: FU-OV-1 (Ovarian Carcinoma)
How it was run: as §1

H4 (Low Grade Glioma) = system: H4 (Low Grade Glioma)
How it was run: as §1

HCC38 (Breast Carcinoma) = system: HCC38 (Breast Carcinoma)
How it was run: as §1

[4] = system: HCT-116 (Colorectal Carcinoma)
How it was run: as §1

[5] = system: MEG-01 (Chronic Myelogenous Leukemia)
How it was run: as §1

MSTO-211H (Mesothelioma) = system: MSTO-211H (Mesothelioma)
How it was run: as §1

[6] = system: NOMO-1 (Acute Myeloid Leukemia)
How it was run: as §1

[7] = system: P31-FUJ (Acute Myeloid Leukemia)
How it was run: as §1

[8] = system: SK-LMS-1 (Other Solid Carcinomas)
How it was run: as §1

SK-MEL-1 (Melanoma) = system: SK-MEL-1 (Melanoma)
How it was run: as §1

[9] = system: SLVL (B-Cell Non-Hodgkin's Lymphoma)
How it was run: as §1

[10] = system: SNG-M (Endometrial Carcinoma)
How it was run: as §1

[11] = system: SW48 (Colorectal Carcinoma)
How it was run: as §1

[12] = system: SW948 (Colorectal Carcinoma)
How it was run: as §1

Saos-2 (Osteosarcoma) = system: Saos-2 (Osteosarcoma)
How it was run: as §1

[13] = system: TC-YIK (Other Solid Carcinomas)
How it was run: as §1

[14] = system: YT (Other Blood Carcinomas)
How it was run: as §1

Row | SMILES | combination Emax [1] | combination Emax (D-392MG (Glioblastoma)) | combination Emax [2] | combination Emax [3] | combination Emax (H4 (Low Grade Glioma)) | combination Emax (HCC38 (Breast Carcinoma)) | combination Emax [4] | combination Emax [5] | combination Emax (MSTO-211H (Mesothelioma)) | combination Emax [6] | combination Emax [7] | combination Emax [8] | combination Emax (SK-MEL-1 (Melanoma)) | combination Emax [9] | combination Emax [10] | combination Emax [11] | combination Emax [12] | combination Emax (Saos-2 (Osteosarcoma)) | combination Emax [13] | combination Emax [14]
1 | C[C@@H]1COCCN1c1cc(C2([S@](C)(=N)=O)CC2)nc(-c2ccnc3[nH]ccc23)n1 [AZD6738] + Nc1ccn([C@@H]2O[C@H](CO)[C@@H](O)C2(F)F)c(=O)n1 [Gemcitabine] (first compound max 10 µM, 7x7, partner max 0.3 µM) | 1 | 0.625 | 0.782 | 0.67 | 0.957 | 0.744 | 0.947 | 0.945 | 0.855 | 1 | 1 | 0.858 | 0.528 | 0.955 | 0.934 | 0.818 | 0.873 | 0.83 | 0.893 | 1
2 | Cc1cc2ncnn2cc1Nc1ncc2c(n1)n(C1CCOCC1)c(=O)n2C [AZD7648] + COc1cc([C@@H]2c3cc4c(cc3[C@@H](O[C@@H]3O[C@@H]5CO[C@@H](C)O[C@H]5[C@H](O)[C@H]3O)[C@H]3COC(=O)[C@H]23)OCO4)cc(OC)c1O [Etoposide] (first compound max 10 µM, 7x7, partner max 10 µM) | 0.979 | 0.489 | 0.572 | 0.603 | 0.756 | 0.486 | 0.725 | 0.854 | 0.783 | 0.98 | 0.967 | 0.822 | 0.558 | 0.924 | 0.867 | 0.883 | 0.524 | 0.827 | 0.976 | 0.974
3 | N#Cc1cnc(Nc2cc(NC[C@H]3CNCCO3)c(C(F)(F)F)cn2)cn1 [SRA737] + O=c1[nH]cc(F)c(=O)[nH]1 [5-Fluorouracil] (first compound max 10 µM, 7x7, partner max 20 µM) |  | 0.313 | 0.345 | 0.158 | 0.619 | 0.507 | 0.737 | 0.835 | 0.536 | 0.985 | 0.98 | 0.268 | 0.157 | 0.927 | 0.71 | 0.592 | 0.45 | 0.457 | 0.723 | 0.993
